Data on 8 compounds can be found in US12599585B2, “Use of [(1R)-1-(2-chlorophenyl)-2-(tetrazol-2-yl)ethyl] carbamate in combination therapy” (priority 2018, dated 2026).

Data set [1] is described as follows: population pharmacokinetic (PopPK) modeling and simulation of the cenobamate effect on concomitant AED concentrations in subjects with partial onset seizures. The format is in vivo, human. The following applies: cenobamate dose 100-400 mg/day. The procedure:
This study was carried out to make an assessment of the extent to which the adjunctive treatment with cenobamate may affect the recommended dosing of other AEDs. Population pharmacokinetics (PopPK) models describing how cenobamate exposure affects that of other commonly used AEDs (i.e., carbamazepine, lamotrigine, levetiracetam, oxcarbazepine, phenytoin and valproic acid) when given as adjunct therapy.
Therapeutically effective amount for AEDs are different depending on the condition of subjects participated in the study. For carbamazepine, therapeutically effective amount was about 800 mg/day to about 1,200 mg/day for adults and children over 12 years of age. For lamotrigine, therapeutically effective amount was about 100 mg/day to about 500 mg/day, preferably about 100 mg/day to 200 mg/day, for adults and children over 12 years of age. For levetiracetam, therapeutically effective amount was about 3,000 mg/day for adults and children over 12 years of age. For phenytoin, therapeutically effective amount was about 300 mg/day to about 600 mg/day for adults. For valproic acid, therapeutically effective amount was about 60 mg/kg/day for adults.
PopPk datasets were constructed from clinical databases for Cenobamate Study 1, Cenobamate Study 2 and Cenobamate Study 3. The dosing, exposure, covariate and AED concentration data were merged by subject, date, and time; formatted for PopPK analysis and saved in ASCII format using R software (Version 3.2.2, Comprehensive R Network, cran.r-project.org). All data programs were documented and archived in a locked on-line repository in order to maintain an audit trail. A quality control (QC) check of the data management procedure was conducted according to qPharmetra standard operating procedures (SOPs).
Results from Cenobamate Study 1, Cenobamate Study 2 and Cenobamate Study 3 were included in the analyses. Each study is described in more detail in the subsequent sections.
This is a multicenter, double-blind, randomized, adjunctive placebo-controlled trial with an open-label extension phase to evaluate the efficacy and safety of cenobamate in subjects with treatment resistant partial onset seizures. Subjects with partial onset seizures not fully controlled despite their treatment with 1 to 3 concomitant AEDs were included in this study. The study included an 8 week baseline period to assess seizure frequency. Only subjects who experienced at least 3 seizures/month during the baseline period with no 21-day seizure-free period were randomized in a 1:1 ratio to add-on placebo or cenobamate administered in an oral formulation once daily in the morning. Subjects then entered a 12-week double-blind treatment period, consisting of a 6-week titration phase followed by a 6-week maintenance phase. In maintenance phase, the dose was 200 mg/day. Blood samples were drawn at the baseline, predose at the start of the titration phase, and on days 15, 29, 43, 57 and 85 after the first dose during the double-blinded treatment period. These samples were analyzed for lamotrigine, levetiracetam, oxcarbazepine, carbamazepine, and valproic acid.
This is a multicenter, double-blind, randomized, placebo-controlled dose-response study, with an 8-week prospective baseline and an 18-week double-blind treatment period. Subjects must have had least 8 partial seizures including only simple partial seizures with motor component, complex partial seizures, or secondarily generalized seizures without a seizure-free interval of greater than 25 days any time during the 8-week baseline despite their treatment with 1 to 3 AEDs. Subjects must have had at least 3 of these partial seizures during each of the two consecutive 4-week periods in the baseline period to be randomized to 100, 200 or 400 mg/day cenobamate or placebo (1:1:1:1 ratio) administered as a tablet formulation once daily in the morning. Subjects first entered a 6-week titration followed by a 12-week maintenance phase. […]

Data set [2] is described as follows: open-label multiple dose PK drug-interaction studies of cenobamate co-administered with AEDs. It is filed as in vivo, human. Here is the method:
This study was carried out to assess the effect of cenobamate on the disposition of four AEDs (divalproex sodium, phenobarbital, phenytoin and carbamazepine) and the effect of four AEDs on the disposition of cenobamate. The details are described below.
Five open-label, multiple dose, multiple period, 1 sequence, PK drug-interaction studies were conducted examining co-administration of cenobamate and each of the above-mentioned AEDs. Specifically, five studies were conducted, as follows:
This is an open-label, multiple-dose, 1 sequence, 3 period pharmacokinetic drug interaction study between cenobamate and divalproex in normal volunteer subjects. Sixteen subjects were enrolled. All subjects were scheduled to undergo 3 treatment periods as a 1 sequence design: • Period 1 (Days 1 to 5): Single oral daily administration of 1000 mg divalproex (Treatment A). • Period 2 (Days 6 to 19): Co-administration of single oral daily administration of 1000 mg divalproex and 150 mg cenobamate (Treatments A and B). • Period 3 (Days 20 to 25): Single oral daily administration of 150 mg cenobamate (Treatment B). (Number of Subjects Planned: 16 Enrolled: 16 Analyzed: 16) Study 2—Phenobarbital
This is an open-label, 1-arm, 2-treatment study. Sixteen (16) healthy, adult, non-tobacco using, male and female subjects were enrolled. Screening of subjects occurred within 28 days prior to the first dose. A total of 16 subjects were enrolled in the study, and 14 subjects completed the study. The PK dataset therefore included 16 subjects for phenobarbital alone and 14 subjects for the combination treatment. There were 16 subjects included in the safety analyses.
Treatment A subjects received 30 mg phenobarbital TID on Days 1 to 7, followed by 90 mg phenobarbital QD in the morning on Days 8 to 21. All study drugs were administered orally with approximately 240 mL of water.
Treatment B subjects received 90 mg phenobarbital QD in the morning from Days 22 to 56 co-administered with 50 mg cenobamate QD on Days 22 to 28, 100 mg cenobamate QD on Days 29 to 35, 150 mg cenobamate QD on Days 36 to 42, and 200 mg cenobamate QD on Days 43 to 56. All study drugs were administered orally with approximately 240 mL of water. The study duration was approximately 13 weeks from screening to end-of-study procedures. There was approximately 17 weeks from screening to attempted follow-up phone call. There was no washout. […]
Blood samples were obtained prior to and following dosing at selected times through 24 hours postdose on selected days (Days 14, 28, and 70). Plasma samples were analyzed for phenytoin and cenobamate concentrations using validated analytical methods. Appropriate PK parameters were calculated for each treatment using non-compartmental methods. […]

[3] abbreviates: combination therapy with phenytoin vs cenobamate alone (FIG. 3).
Setting [4] is: combination therapy with cenobamate vs AED alone (FIG. 2).

On to `NC(=O)N1c2ccccc2C=Cc2ccccc21` [Carbamazepine, carbamazepine], for which the “Effect on AED Concentration (AUC): Reduction by” value (from here on “Effect … Reduction by”) in data set [1] is given as “Reduction by 11-34%”.

For the compound `Nc1nnc(-c2cccc(Cl)c2Cl)c(N)n1` [Lamotrigine, lamotrigine], the “Effect … Reduction by” value in data set [1] is recorded as “Reduction by 21-52%”.

Turning to `CC[C@@H](C(N)=O)N1CCCC1=O` [Levetiracetam, levetiracetam], the “Effect … Reduction by” value in data set [1] was “Reduction by 4-13%”.

For `NC(=O)N1c2ccccc2CC(=O)c2ccccc21` [Oxcarbazepine, oxcarbazepine], in data set [1], the “Effect on AED Concentration (AUC): Increase by” value was “Increased by 10%”.

Regarding `O=C1NC(=O)C(c2ccccc2)(c2ccccc2)N1` [Phenytoin, phenytoin], the “Effect on AED Concentration (AUC): Increase by” value in data set [1] was “Increase by 10-60%”.

`CCCC(CCC)C(=O)O` [Valproic acid, valproic acid]: in data set [1], the “Effect … Reduction by” value is on record as “Reduction by 5-19%”.

As to `NC(=O)O[C@@H](Cn1ncnn1)c1ccccc1Cl` [cenobamate, [(1R)-1-(2-chlorophenyl)-2-(tetrazol-2-yl)ethyl] carbamate], in data set [2] (setting [3]), the “plasma AUC for cenobamate” value is on record as “decreased” and the “plasma Cmax for cenobamate” value was “decreased”.

Consider `CCC1(c2ccccc2)C(=O)NC(=O)NC1=O` [phenobarbital], for which, in data set [2] (setting [4]), the “plasma AUC of the AED” value is recorded as “increased” and the “plasma Cmax of the AED” value is given as “increased”.
